Some results are limits rather than exact numbers.

By IC50 is commonly meant the point on the concentration scale where inhibition reaches its midpoint.

The target of experiment [1] is T1, MALT1 (Homo sapiens, UniProt Q9UDY8).
T1 construct: Avi-tagged FL MALT-1 (Pharmaron, stored at −70° C.); Avi tag
T1 sequence (Q9UDY8 1-824): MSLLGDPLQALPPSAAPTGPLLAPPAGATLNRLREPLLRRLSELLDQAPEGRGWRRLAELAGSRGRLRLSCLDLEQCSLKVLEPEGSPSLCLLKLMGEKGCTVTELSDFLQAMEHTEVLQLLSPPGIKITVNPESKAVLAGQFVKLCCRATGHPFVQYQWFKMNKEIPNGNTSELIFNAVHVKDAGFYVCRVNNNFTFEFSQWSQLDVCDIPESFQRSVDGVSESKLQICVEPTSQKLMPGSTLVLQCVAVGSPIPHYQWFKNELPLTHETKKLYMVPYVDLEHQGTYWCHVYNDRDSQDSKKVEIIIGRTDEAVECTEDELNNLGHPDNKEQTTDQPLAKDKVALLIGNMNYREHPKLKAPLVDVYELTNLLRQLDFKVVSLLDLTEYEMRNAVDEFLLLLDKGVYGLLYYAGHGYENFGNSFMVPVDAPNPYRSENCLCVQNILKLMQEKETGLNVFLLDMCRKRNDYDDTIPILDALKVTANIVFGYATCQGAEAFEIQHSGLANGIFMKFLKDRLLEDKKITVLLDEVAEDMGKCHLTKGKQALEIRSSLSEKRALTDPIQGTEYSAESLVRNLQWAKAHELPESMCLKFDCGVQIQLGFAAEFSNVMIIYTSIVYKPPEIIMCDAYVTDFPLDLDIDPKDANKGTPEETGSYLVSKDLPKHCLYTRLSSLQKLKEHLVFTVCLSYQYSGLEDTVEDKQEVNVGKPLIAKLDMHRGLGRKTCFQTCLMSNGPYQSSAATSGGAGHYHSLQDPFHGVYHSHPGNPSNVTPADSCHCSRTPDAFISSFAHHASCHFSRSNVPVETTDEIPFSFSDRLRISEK
As to the kind of experiment: MALT-1 Fluorogenic Peptide Cleavage Assay (MALT1 inhibition assay). The format is biochemical. The note with it: Avi-tagged FL MALT-1, Ac-LRSR-AMC peptide substrate, 30 min pre-incubation, 90 min reaction. Put shortly: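 IC50 from sigmoidal fits of % inhibition, with fluorescence (ex 342, em 441 nm) from AMC released from the quenched LRSR peptide after 90 min at room temperature. Full-length Avi-tagged MALT1 saw compound for 30 min first; final DMSO 2%.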

The subject of experiment [2] is NF-kB. As to the kind of experiment: NF-kB reporter assay in Jurkat cells stimulated with aCD3/aCD28/PMA. The format is cell-based. The conditions noted are these: Homo sapiens, Jurkat, Jurkat cells, 1 hr compound incubation, aCD3/aCD28/PMA stimulation 4 hr, One-Glo readout; read-out: NF-kB Reporter Assay IC50. In outline: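 Stimulation used final aCD3 5 μg/mL, aCD28 5 μg/mL and PMA 0.03 μg/mL for 4 hr at 37° C, after 1 hr compound pretreatment of 25,000 serum-starved Jurkat cells per well. One-Glo luminescence gave IC50 values.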
A general note: A reporter such as luciferase makes a cellular process visible.

Consider `COc1ccc2cnn(C)c2c1NS(=O)(=O)c1ccc(-n2cc(CO)cn2)nc1` [Example I-284, 6-[4-(hydroxymethyl)pyrazol-1-yl]-N-(6-methoxy-1-methylindazol-7-yl)pyridine-3-sulfonamide], for which the IC50 was 400 to 1000 nM in experiment [1] and under 400 nM in experiment [2].
On to `COc1ccc2cnn(C)c2c1NS(=O)(=O)c1ccc(-n2cc(C(C)(C)C)cn2)nc1` [Example I-285, 6-(4-tert-butylpyrazol-1-yl)-N-(6-methoxy-1-methylindazol-7-yl)pyridine-3-sulfonamide], for which the IC50 was 400 to 1000 nM in experiment [1] and under 400 nM in experiment [2].
For `COc1ccc2cnn(C)c2c1NS(=O)(=O)c1ccc(-n2cnc(C(F)(F)F)c2)nc1` [Example I-286, N-(6-methoxy-1-methylindazol-7-yl)-6-[4-(trifluoromethyl)imidazol-1-yl]pyridine-3-sulfonamide], in that order: under 400 nM and under 400 nM.
With `COc1ccc2cnn(C)c2c1NS(=O)(=O)c1ccc(-c2cnn3c2CCC3)nc1` [Example I-287], the IC50 in experiment [1] is 1000 to 2500 nM; in experiment [2] it was under 400 nM.
For `Cc1n[nH]c2cccc(NS(=O)(=O)c3ccc(-c4cnn5c4CCC5)nc3)c12` [Example I-288] the same measures were over 2500 nM and under 400 nM.
For `COc1ncc2cnn(C)c2c1NS(=O)(=O)c1ccc(-c2cnn3c2CCC3)nc1` [Example I-289] the same measures were over 2500 nM and 400 to 1000 nM.
For `[2H]C([2H])([2H])n1ncc2cnc(OC)c(NS(=O)(=O)c3ccc(-n4cc(C(F)(F)F)cn4)nc3)c21` [Example I-290, N-(6-methoxy-1-(methyl-d3)-1H-pyrazolo[4,3-c]pyridin-7-yl)-6-(4-(trifluoromethyl)-1H-pyrazol-1-yl)pyridine-3-sulfonamide] the same measures were under 400 nM and under 400 nM.
Consider `[2H]C([2H])([2H])n1ncc2cnc(OC)c(N(C)S(=O)(=O)c3ccc(-n4cc(C(F)(F)F)cn4)nc3)c21` [Example I-291, N-(6-methoxy-1-(methyl-d3)-1H-pyrazolo[4,3-c]pyridin-7-yl)-N-methyl-6-(4-(trifluoromethyl)-1H-pyrazol-1-yl)pyridine-3-sulfonamide], for which the IC50 in experiment [1] and in experiment [2] was under 400 nM each time.
For `O=S(=O)(c1ccc(-n2cc(C(F)(F)F)cn2)nc1)N1CCCn2ncc3cccc1c32` [Example I-292, 1-((6-(4-(trifluoromethyl)-1H-pyrazol-1-yl)pyridin-3-yl)sulfonyl)-1,2,3,4-tetrahydro-[1,4]diazepino[3,2,1-hi]indazole], the IC50 is over 2500 nM in experiment [1] and 400 to 1000 nM in experiment [2].
For `O=S(=O)(c1ccc(-n2cc(C(F)(F)F)cn2)nc1)N1CCCCn2ncc3cccc1c32` [Example I-293, 1-((6-(4-(trifluoromethyl)-1H-pyrazol-1-yl)pyridin-3-yl)sulfonyl)-2,3,4,5-tetrahydro-1H-[1,4]diazocino[3,2,1-hi]indazole], in that order: over 2500 nM and 400 to 1000 nM.
On to `O=S(=O)(c1ccc(-n2cc(C(F)(F)F)cn2)nc1)N1CCn2ncc3cccc1c32` [Example I-294, 1-((6-(4-(trifluoromethyl)-1H-pyrazol-1-yl)pyridin-3-yl)sulfonyl)-2,3-dihydro-1H-pyrazolo[1,5,4-de]quinoxaline], for which the IC50 in experiment [1] is over 2500 nM; in experiment [2] it was 1000 to 2500 nM.
Take `COc1ccc2[nH]nc(C)c2c1NS(=O)(=O)c1ccc(-c2cnn3c2CCC3)nc1` [Example I-295]: the IC50 in experiment [1] is over 2500 nM; in experiment [2] it was under 400 nM.
For `C=Cn1ncc2cccc(NS(=O)(=O)c3ccc(-n4cc(C(F)(F)F)cn4)nc3)c21` [Example I-296, 6-(4-(trifluoromethyl)-1H-pyrazol-1-yl)-N-(1-vinyl-1H-indazol-7-yl)pyridine-3-sulfonamide], in that order: 1000 to 2500 nM and under 400 nM.
For `C=Cn1cc2cccc(NS(=O)(=O)c3ccc(-n4cc(C(F)(F)F)cn4)nc3)c2n1` [Example I-297], in that order: over 2500 nM and over 2500 nM.
For `Cn1ncc2cccc(NS(=O)(=O)c3ccc(-n4nc(C(F)(F)F)c5c4CCOC5)nc3)c21` [Example I-298] the same measures were over 2500 nM and under 400 nM.
Regarding `COc1ncc2cnn(C)c2c1NS(=O)(=O)c1ccc(-c2cnn3c2OCCC3)nc1` [Example I-299], the IC50 in experiment [1] and in experiment [2] was over 2500 nM in each case.
For the molecule `COc1ncc2cnn(C)c2c1NS(=O)(=O)c1ccc(-n2nc(C(F)(F)F)c3c2CCOC3)nc1` [Example I-300, N-(6-methoxy-1-methyl-1H-pyrazolo[4,3-c]pyridin-7-yl)-6-(3-(trifluoromethyl)-6,7-dihydropyrano[4,3-c]pyrazol-1(4H)-yl)pyridine-3-sulfonamide], the IC50 in experiment [1] was under 400 nM; in experiment [2] it was 400 to 1000 nM.
For `COc1ncc2cnn(C)c2c1NS(=O)(=O)c1ccc(-c2cnn3c2COCC3)nc1` [Example I-301], in that order: 1000 to 2500 nM and 1000 to 2500 nM.
For `Cn1ncc2cccc(NS(=O)(=O)c3ccc(-c4cnn5c4OCCC5)nc3)c21` [Example I-302, N-(1-methylindazol-7-yl)-6-{5H,6H,7H-pyrazolo[3,2-b][1,3]oxazin-3-yl}pyridine-3-sulfonamide], in that order: over 2500 nM and under 400 nM.
For `COc1ccc2cnn(C)c2c1NS(=O)(=O)c1ccc(-c2cnn3c2OCCC3)nc1` [Example I-303, 6-(6,7-dihydro-5H-pyrazolo[5,1-b][1,3]oxazin-3-yl)-N-(6-methoxy-1-methyl-1H-indazol-7-yl)pyridine-3-sulfonamide] the same measures were over 2500 nM and 400 to 1000 nM.
Take `COc1ccc2cnn(C)c2c1NS(=O)(=O)c1ccc(-n2nc(C(F)(F)F)c3c2CCOC3)nc1` [Example I-304, N-(6-methoxy-1-methyl-1H-indazol-7-yl)-6-(3-(trifluoromethyl)-6,7-dihydropyrano[4,3-c]pyrazol-1(4H)-yl)pyridine-3-sulfonamide]: the IC50 in experiment [1] and in experiment [2] was under 400 nM each time.
Take `COc1ncc2cnn(C)c2c1NS(=O)(=O)c1ccc(-c2nn(C)c3c2COCC3)nc1` [Example I-305]: the IC50 is over 2500 nM in experiment [1] and 400 to 1000 nM in experiment [2].
For `Cn1nc(-c2ccc(S(=O)(=O)Nc3cccc4cnn(C)c34)cn2)c2c1CCOC2` [Example I-306, 6-(1-methyl-1,4,6,7-tetrahydropyrano[4,3-c]pyrazol-3-yl)-N-(1-methyl-1H-indazol-7-yl)pyridine-3-sulfonamide], the IC50 is over 2500 nM in experiment [1] and under 400 nM in experiment [2].
As to `COc1ccc2cnn(C)c2c1NS(=O)(=O)c1ccc(-c2nn(C)c3c2COCC3)nc1` [Example I-307], the figures for the IC50 in experiment [1] and in experiment [2] were over 2500 nM and 400 to 1000 nM, respectively.
For `COc1ccc2cnn(C)c2c1NS(=O)(=O)c1ccc(-c2cnn3c2COCC3)nc1` [Example I-308], the IC50 in experiment [1] is 1000 to 2500 nM; in experiment [2] it was under 400 nM.
For `Cn1ncc2cccc(NS(=O)(=O)c3ccc(-c4cnc5n4CCOC5)nc3)c21` [Example I-309, 6-(5,6-dihydro-8H-imidazo[2,1-c][1,4]oxazin-3-yl)-N-(1-methyl-1H-indazol-7-yl)pyridine-3-sulfonamide], in that order: over 2500 nM and under 400 nM.
In the case of `COc1ccc2cnn(C)c2c1NS(=O)(=O)c1ccc(-c2cnn3c2COCCC3)nc1` [Example I-310, 6-(7,8-dihydro-4H,6H-pyrazolo[5,1-c][1,4]oxazepin-3-yl)-N-(6-methoxy-1-methyl-1H-indazol-7-yl)pyridine-3-sulfonamide], the IC50 in experiment [1] and in experiment [2] was over 2500 nM throughout.
Turning to `COc1ncc2cnn(C)c2c1NS(=O)(=O)c1ccc(-c2cnn3c2COCCC3)nc1` [Example I-311], the IC50 in experiment [1] and in experiment [2] was over 2500 nM each time.
On to `COc1ccc2cnn(C)c2c1NS(=O)(=O)c1ccc(-c2cnc3n2CCOC3)nc1` [Example I-312, 6-(5,6-dihydro-8H-imidazo[2,1-c][1,4]oxazin-3-yl)-N-(6-methoxy-1-methyl-1H-indazol-7-yl)pyridine-3-sulfonamide], for which the IC50 in experiment [1] fell in the range of 1000 to 2500 nM; in experiment [2], 400 to 1000 nM.
For `Cn1ncc2cccc(NS(=O)(=O)c3ccc(-c4cnn5c4COCCC5)nc3)c21` [Example I-313], in that order: over 2500 nM and under 400 nM.

The values above are taken from patent publication US20240150365A1 (Hotspot Therapeutics, Inc., priority 2022, published 2024).
